Experiments:
Scirpus juncoides [1] = experiment: Herbicidal effect test in submerged condition by treatment during weed-growth stage (1); assay type: in vivo; conditions: 0.64 g/a, treated at 1st to 2nd leaf stage, 3 weeks after treatment
How it was run: (§1)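 Paddy-soil pots flooded to 4 cm water depth were sown and grown in a greenhouse at 25 to 30° C until weeds reached 1st to 2nd leaf stage. A wettable powder diluted in water to a predetermined formulation amount was applied to the water surface. Herbicidal effect was scored 3 weeks after treatment against set criteria.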

Echinochloa crus-galli [2] = experiment: as above; assay type: in vivo; conditions: 0.64 g/a, treated at 1st to 2nd leaf stage, 3 weeks after treatment
How it was run: as §1

Monochoria vaginalis [3] = experiment: as above; assay type: in vivo; conditions: 0.64 g/a, treated at 1st to 2nd leaf stage, 3 weeks after treatment
How it was run: as §1

direct sown rice [4] = experiment: Herbicidal effect test by foliage treatment; assay type: in vivo, Oryza sativa; conditions: 1.6 g/a; foliage treatment after growth of 14 days; 3 weeks after treatment
Excerpt: (§2) Herbicidal Effect Test by Foliage Treatment
(§3) Sterilized diluvial soil was placed in a plastic box having a size of length 21 cm, width 13 cm and depth 7 cm, seeds of Echinochloa crus-galli, Digitaria adscendes, Setaria viridis, Avena fatua, Black-grass, Abutilon avicennae, Ambrosia elatior, Amaranthus retroflexus, Chenopodium album, Polygonum blumei, Stellaria media, Zea mays, Glycine max, Oryza sativa, Triticum aestivum and Beta vulgaris were sown interspatially, covered with about 1.5 cm of soil, and then the plants were grown by putting the box in a green house at 25 to 30° C. After growth of 14 days, the wettable powder of the present invention prepared according to Formulation Example 1 was diluted with water so as to give a predetermined formulation amount, and the foliage part was uniformly treated with the diluted wettable powder by use of a small-sized spray. The herbicidal effect for each plant was investigated 3 weeks after treatment with the herbicide according to the criteria indicated in Test Example 1.

Ambrosia elatior [5] = experiment: Herbicidal effect test by soil treatment; assay type: in vivo; conditions: 1.6 g/a, 3 weeks after treatment
How it was run: (§4)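 Weed seeds, sown interspatially with crop species in sterilized diluvial soil, receive a uniform soil-surface spray of the compound as a diluted wettable powder. Injury is scored on a criteria scale three weeks later.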

soybean (Glycine max) [6] = experiment: Herbicidal effect test by soil treatment; assay type: in vivo; conditions: 1.6 g/a, 3 weeks after treatment
How it was run: as §4

Echinochloa crus-galli [7] = experiment: Herbicidal effect test by soil treatment; assay type: in vivo; conditions: 1.6 g/a, 3 weeks after treatment
How it was run: as §4

Amaranthus retroflexus [8] = experiment: Herbicidal effect test by soil treatment; assay type: in vivo; conditions: 1.6 g/a, 3 weeks after treatment
How it was run: as §4

Polygonum blumei [9] = experiment: Herbicidal effect test by soil treatment; assay type: in vivo; conditions: 1.6 g/a, 3 weeks after treatment
How it was run: as §4

Digitaria adscendes [10] = experiment: Herbicidal effect test by soil treatment; assay type: in vivo; conditions: 1.6 g/a, 3 weeks after treatment
How it was run: as §4

corn (Zea mays) [11] = experiment: Herbicidal effect test by soil treatment; assay type: in vivo; conditions: 1.6 g/a, 3 weeks after treatment
How it was run: as §4

Setaria viridis [12] = experiment: Herbicidal effect test by soil treatment; assay type: in vivo; conditions: 1.6 g/a, 3 weeks after treatment
How it was run: as §4

Stellaria media [13] = experiment: Herbicidal effect test by soil treatment; assay type: in vivo; conditions: 1.6 g/a, 3 weeks after treatment
How it was run: as §4

Abutilon avicennae [14] = experiment: Herbicidal effect test by soil treatment; assay type: in vivo; conditions: 1.6 g/a, 3 weeks after treatment
How it was run: as §4

Chenopodium album [15] = experiment: Herbicidal effect test by soil treatment; assay type: in vivo; conditions: 1.6 g/a, 3 weeks after treatment
How it was run: as §4

Beta vulgaris (beet) [16] = experiment: Herbicidal effect test by soil treatment; assay type: in vivo; conditions: 1.6 g/a, 3 weeks after treatment
How it was run: as §4

Scirpus juncoides [17] = experiment: Herbicidal effect test in submerged condition by treatment before weed-generation (1); assay type: in vivo; conditions: 0.64 g/a, water surface treated on day of sowing, 3 weeks after treatment
Excerpt: (§5) Herbicidal Effect Test in Submerged Condition by Treatment Before Weed-Generation (1)
(§6) After alluvial soil was placed in a styrol cup of 1/30000 are, water was poured therein and mixed, and adjusted to a submerged condition of water depth 4 cm. After seeds of Echinochloa crus-galli, Scirpus juncoides and Monochoria vaginalis were sown in the cup, rice seedlings at 2.5th leaf stage were transplanted. On the day when the seeds were sown, the wettable powder of the present invention prepared according to Formulation Example 1 was diluted with water so as to give a predetermined formulation amount, and the surface of the water was treated with the diluted wettable powder. The plants were grown by putting the cup in a green house at 25 to 30° C., and investigated on herbicidal effect against each weed 3 weeks after treatment with the herbicide according to the following criteria.
(§7) 5 Herbicidal rate 90% or more (almost complete death)
(§8) 4 Herbicidal rate 70% or more and less than 90%
(§9) 3 Herbicidal rate 40% or more and less than 70%
(§10) 2 Herbicidal rate 20% or more and less than 40%
(§11) 1 Herbicidal rate 5% or more and less than 20%
(§12) 0 Herbicidal rate 5% or less (little effect)

Echinochloa crus-galli [18] = experiment: as above; assay type: in vivo; conditions: 0.64 g/a, water surface treated on day of sowing, 3 weeks after treatment
Excerpt: as §5, §6, §7, §8, §9, §10, §11, §12

Monochoria vaginalis [19] = experiment: as above; assay type: in vivo; conditions: 0.64 g/a, water surface treated on day of sowing, 3 weeks after treatment
Excerpt: as §5, §6, §7, §8, §9, §10, §11, §12

Ambrosia elatior [20] = experiment: Herbicidal effect test by foliage treatment; assay type: in vivo; conditions: 1.6 g/a; foliage treatment after growth of 14 days; 3 weeks after treatment
Excerpt: as §2, §3

Avena fatua = experiment: Herbicidal effect test by foliage treatment; assay type: in vivo; conditions: 1.6 g/a; foliage treatment after growth of 14 days; 3 weeks after treatment
Excerpt: as §2, §3

soybean (Glycine max) [21] = experiment: Herbicidal effect test by foliage treatment; assay type: in vivo; conditions: 1.6 g/a; foliage treatment after growth of 14 days; 3 weeks after treatment
Excerpt: as §2, §3

Echinochloa crus-galli [22] = experiment: Herbicidal effect test by foliage treatment; assay type: in vivo; conditions: 1.6 g/a; foliage treatment after growth of 14 days; 3 weeks after treatment
Excerpt: as §2, §3

Amaranthus retroflexus [23] = experiment: Herbicidal effect test by foliage treatment; assay type: in vivo; conditions: 1.6 g/a; foliage treatment after growth of 14 days; 3 weeks after treatment
Excerpt: as §2, §3

Polygonum blumei [24] = experiment: Herbicidal effect test by foliage treatment; assay type: in vivo; conditions: 1.6 g/a; foliage treatment after growth of 14 days; 3 weeks after treatment
Excerpt: as §2, §3

Digitaria adscendes [25] = experiment: Herbicidal effect test by foliage treatment; assay type: in vivo; conditions: 1.6 g/a; foliage treatment after growth of 14 days; 3 weeks after treatment
Excerpt: as §2, §3

corn (Zea mays) [26] = experiment: Herbicidal effect test by foliage treatment; assay type: in vivo; conditions: 1.6 g/a; foliage treatment after growth of 14 days; 3 weeks after treatment
Excerpt: as §2, §3

Setaria viridis [27] = experiment: Herbicidal effect test by foliage treatment; assay type: in vivo; conditions: 1.6 g/a; foliage treatment after growth of 14 days; 3 weeks after treatment
Excerpt: as §2, §3

Stellaria media [28] = experiment: Herbicidal effect test by foliage treatment; assay type: in vivo; conditions: 1.6 g/a; foliage treatment after growth of 14 days; 3 weeks after treatment
Excerpt: as §2, §3

[29] = system: Triticum aestivum (wheat); experiment: Herbicidal effect test by foliage treatment; assay type: in vivo; conditions: 1.6 g/a; foliage treatment after growth of 14 days; 3 weeks after treatment
Excerpt: as §2, §3

Abutilon avicennae [30] = experiment: Herbicidal effect test by foliage treatment; assay type: in vivo; conditions: 1.6 g/a; foliage treatment after growth of 14 days; 3 weeks after treatment
Excerpt: as §2, §3

Chenopodium album [31] = experiment: Herbicidal effect test by foliage treatment; assay type: in vivo; conditions: 1.6 g/a; foliage treatment after growth of 14 days; 3 weeks after treatment
Excerpt: as §2, §3

Black-grass = experiment: Herbicidal effect test by foliage treatment; assay type: in vivo; conditions: 1.6 g/a; foliage treatment after growth of 14 days; 3 weeks after treatment
Excerpt: as §2, §3

Beta vulgaris (beet) [32] = experiment: Herbicidal effect test by foliage treatment; assay type: in vivo; conditions: 1.6 g/a; foliage treatment after growth of 14 days; 3 weeks after treatment
Excerpt: as §2, §3

direct sown rice [33] = experiment: Herbicidal effect test by soil treatment; assay type: in vivo, Oryza sativa; conditions: 1.6 g/a, 3 weeks after treatment
How it was run: as §4

In the case of `COc1cc(OC)nc(NC(=O)NS(=O)(=O)c2c(C3=NOCC(C)O3)c(C)nn2C)n1` (centres unmarked) [Compound 5, N-((4,6-dimethoxypyrimidin-2-yl)aminocarbonyl)-1,3-dimethyl-4-(5-methyl-5H,6H-1,4,2-dioxadin-3-yl)pyrazole-5-sulfonamide], the “herbicidal effect, B: Scirpus juncoides” value (Scirpus juncoides [1]) is reported as 5 (Herbicidal rate 90% or more (almost complete death)), the “herbicidal effect, A: Echinochloa crus-galli” value (Echinochloa crus-galli [2]) is reported as 5 (Herbicidal rate 90% or more (almost complete death)) and the “herbicidal effect, C: Monochoria vaginalis” value (Monochoria vaginalis [3]) is reported as 5 (Herbicidal rate 90% or more (almost complete death)). The “herbicidal effect, d: direct sown rice” value (direct sown rice [4]) was 3 (Herbicidal rate 40% or more and less than 70%), the “herbicidal effect, I: Ambrosia elatior” value (Ambrosia elatior [5]) was 5 (Herbicidal rate 90% or more (almost complete death)) and the “herbicidal effect, c: soybean (Glycine max)” value (soybean (Glycine max) [6]) was 5 (Herbicidal rate 90% or more (almost complete death)). For the same compound, the “herbicidal effect, A: Echinochloa crus-galli” value (Echinochloa crus-galli [7]) was 5 (Herbicidal rate 90% or more (almost complete death)), the “herbicidal effect, J: Amaranthus retroflexus” value (Amaranthus retroflexus [8]) was 5 (Herbicidal rate 90% or more (almost complete death)) and the “herbicidal effect, L: Polygonum blumei” value (Polygonum blumei [9]) was 5 (Herbicidal rate 90% or more (almost complete death)). The “herbicidal effect, D: Digitaria adscendes” value (Digitaria adscendes [10]) was 5 (Herbicidal rate 90% or more (almost complete death)), the “herbicidal effect, b: corn (Zea mays)” value (corn (Zea mays) [11]) was 5 (Herbicidal rate 90% or more (almost complete death)) and the “herbicidal effect, E: Setaria viridis” value (Setaria viridis [12]) was 4 (Herbicidal rate 70% or more and less than 90%). For the same compound, the “herbicidal effect, M: Stellaria media” value (Stellaria media [13]) was 5 (Herbicidal rate 90% or more (almost complete death)), the “herbicidal effect, H: Abutilon avicennae” value (Abutilon avicennae [14]) was 4 (Herbicidal rate 70% or more and less than 90%) and the “herbicidal effect, K: Chenopodium album” value (Chenopodium album [15]) was 5 (Herbicidal rate 90% or more (almost complete death)). For the same compound, the “herbicidal effect, f: Beta vulgaris (beet)” value (Beta vulgaris (beet) [16]) was 5 (Herbicidal rate 90% or more (almost complete death)), the “herbicidal effect, B: Scirpus juncoides” value (Scirpus juncoides [17]) was 5 (Herbicidal rate 90% or more (almost complete death)) and the “herbicidal effect, A: Echinochloa crus-galli” value (Echinochloa crus-galli [18]) was 5 (Herbicidal rate 90% or more (almost complete death)). The “herbicidal effect, C: Monochoria vaginalis” value (Monochoria vaginalis [19]) was 5 (Herbicidal rate 90% or more (almost complete death)), the “herbicidal effect, I: Ambrosia elatior” value (Ambrosia elatior [20]) was 5 (Herbicidal rate 90% or more (almost complete death)) and the “herbicidal effect, F: Avena fatua” value (Avena fatua) was 5 (Herbicidal rate 90% or more (almost complete death)). The “herbicidal effect, c: soybean (Glycine max)” value (soybean (Glycine max) [21]) was 5 (Herbicidal rate 90% or more (almost complete death)), the “herbicidal effect, A: Echinochloa crus-galli” value (Echinochloa crus-galli [22]) was 5 (Herbicidal rate 90% or more (almost complete death)) and the “herbicidal effect, J: Amaranthus retroflexus” value (Amaranthus retroflexus [23]) was 5 (Herbicidal rate 90% or more (almost complete death)). The “herbicidal effect, L: Polygonum blumei” value (Polygonum blumei [24]) was 5 (Herbicidal rate 90% or more (almost complete death)), the “herbicidal effect, D: Digitaria adscendes” value (Digitaria adscendes [25]) was 5 (Herbicidal rate 90% or more (almost complete death)) and the “herbicidal effect, b: corn (Zea mays)” value (corn (Zea mays) [26]) was 5 (Herbicidal rate 90% or more (almost complete death)). For the same compound, the “herbicidal effect, E: Setaria viridis” value (Setaria viridis [27]) was 4 (Herbicidal rate 70% or more and less than 90%), the “herbicidal effect, M: Stellaria media” value (Stellaria media [28]) was 5 (Herbicidal rate 90% or more (almost complete death)) and the “herbicidal effect, e: Triticum aestivum (wheat)” value [29] was 5 (Herbicidal rate 90% or more (almost complete death)). For the same compound, the “herbicidal effect, H: Abutilon avicennae” value (Abutilon avicennae [30]) was 5 (Herbicidal rate 90% or more (almost complete death)), the “herbicidal effect, K: Chenopodium album” value (Chenopodium album [31]) was 5 (Herbicidal rate 90% or more (almost complete death)) and the “herbicidal effect, G: Black-grass” value (Black-grass) was 5 (Herbicidal rate 90% or more (almost complete death)). For the same compound, the “herbicidal effect, f: Beta vulgaris (beet)” value (Beta vulgaris (beet) [32]) was 5 (Herbicidal rate 90% or more (almost complete death)) and the “herbicidal effect, d: direct sown rice” value (direct sown rice [33]) was 5 (Herbicidal rate 90% or more (almost complete death)).
